Target: T1, GLUT1 (Homo sapiens, UniProt P11166)
T1 construct: endogenous in cells
T1 sequence (P11166 1-492): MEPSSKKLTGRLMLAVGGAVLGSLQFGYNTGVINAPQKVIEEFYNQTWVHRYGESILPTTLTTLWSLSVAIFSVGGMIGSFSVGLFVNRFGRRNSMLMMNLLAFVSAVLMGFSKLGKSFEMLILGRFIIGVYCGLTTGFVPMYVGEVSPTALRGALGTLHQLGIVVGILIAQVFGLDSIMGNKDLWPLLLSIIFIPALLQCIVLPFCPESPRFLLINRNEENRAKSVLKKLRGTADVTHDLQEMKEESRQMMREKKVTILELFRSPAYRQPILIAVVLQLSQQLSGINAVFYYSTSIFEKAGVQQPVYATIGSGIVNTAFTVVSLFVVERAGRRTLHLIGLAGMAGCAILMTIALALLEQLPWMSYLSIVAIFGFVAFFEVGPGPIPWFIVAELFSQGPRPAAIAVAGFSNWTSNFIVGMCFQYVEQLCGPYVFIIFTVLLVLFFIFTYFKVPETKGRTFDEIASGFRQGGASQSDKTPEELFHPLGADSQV
Experiment: Indirect measurement of GLUT activity by quantification of intracellular ATP levels (glucose induced ATP increase)
Format: cell-based
Details: DLD1 cells; 1 mM glucose, 1 uM Rotenone, 15 min; standardized to cytochalasin B IC50 values; read-out: IC50 regarding glucose induced ATP increase (GLUT1 inhibition)
From the text: It is well known that a combination of small-molecule inhibitors of mitochondrial electron transport chain and glucose catabolism synergistically suppress ATP production and impair cellular viability (Ulanovskaya et al., 2008, 2011; Liu, et al. 2001). We therefore used DLD1 or CHO-K1 cells in combination with an oxidative phosphorylation inhibitor to identify GLUT inhibitors. Cell lines were maintained in DMEM medium supplemented with 10% FCS and 1% Penicillin-Streptomycin solution and 2% Glutamax. The cells were treated with trypsin and seeded into 384 plates at a density of 4000 cells/well. The cells were then cultured overnight in glucose free media containing 1% FCS to reduce intracellular ATP levels. After 24 h the cells were incubated at 37° C. containing the appropriate glucose or in case of GLUT2 fructose concentration (1 mM and 30 mM respectively) with or without compounds and 1 uM Rotenone for 15 min. The CellTiter-Glo® Luminescent Cell Viability Assay from Promega was then used to measure ATP levels. Compounds able to reduce the ATP Levels within 15 min of glucose application were considered to be glucose uptake inhibitors.

| SMILES | IC50 [nM] |
| --- | --- |
| CCc1noc(Cn2cc(NC(=O)c3cc(C(F)(F)F)nc4ccc(Br)cc34)c(C)n2)n1 [Example 64, 6-bromo-N-{1-[(3-ethyl-1,2,4-oxadiazol-5-yl)methyl]-3-methyl-1H-pyrazol-4-yl}-2-(trifluoromethyl)quinoline-4-carboxamide] | 391 |
| COc1ccc(Cn2cc(NC(=O)c3cc(C(N)=O)nc4cc(F)ccc34)c(C(F)(F)F)n2)cc1 [Example 50, 7-fluoro-N^4-[1-(4-methoxybenzyl)-3-(trifluoromethyl)-1H-pyrazol-4-yl]quinoline-2,4-dicarboxamide] | 3.9 |
| N#Cc1ccc(Cn2cc(NC(=O)c3cc(C(F)(F)F)nc4ccc(Br)cc34)c(C(N)=O)n2)cc1 [Example 28, 6-bromo-N-[3-carbamoyl-1-(4-cyanobenzyl)-1H-pyrazol-4-yl]-2-(trifluoromethyl)quinoline-4-carboxamide] | 544 |
| Cc1nn(Cc2ccc(C#N)cc2)cc1NC(=O)c1cc(C(N)=O)nc2cc(F)ccc12 [Example 52, N^4-[1-(4-cyanobenzyl)-3-methyl-1H-pyrazol-4-yl]-7-fluoroquinoline-2,4-dicarboxamide] | 3.1 |
| COCCNC(=O)c1nn(Cc2ccc(C#N)cc2)cc1NC(=O)c1cc(C(F)(F)F)nc2ccc(Br)cc12 [Example 30, 6-bromo-N-{1-(4-cyanobenzyl)-3-[(2-methoxyethyl)carbamoyl]-1H-pyrazol-4-yl}-2-(trifluoromethyl)quinoline-4-carboxamide] | 7490 |
| COCCNC(=O)c1nn(Cc2ccc(F)cc2)cc1NC(=O)c1cc(C(F)(F)F)nc2ccc(Br)cc12 [Example 23, 6-bromo-N-{1-(4-fluorobenzyl)-3-[(2-methoxyethyl)carbamoyl]-1H-pyrazol-4-yl}-2-(trifluoromethyl)quinoline-4-carboxamide] | 20100 |
| CCS(=O)(=O)N1CCC(Cn2cc(NC(=O)c3cc(C(N)=O)nc4ccccc34)c(C)n2)CC1 [Example 72, N^4-(1-{[1-(ethylsulfonyl)piperidin-4-yl]methyl}-3-methyl-1H-pyrazol-4-yl)quinoline-2,4-dicarboxamide] | 247 |
| Cc1nn(Cc2ccc(F)cc2)cc1NC(=O)c1cc(C(F)(F)F)nc2cc(F)c(F)cc12 [Example 2, 6,7-difluoro-N-[1-(4-fluorobenzyl)-3-methyl-1H-pyrazol-4-yl]-2-(trifluoromethyl)quinoline-4-carboxamide] | 505 |
| CC(C)c1nn(Cc2ccc(C#N)cc2)cc1NC(=O)c1cc(C(N)=O)nc2cc(F)ccc12 [Example 62, N^4-[1-(4-cyanobenzyl)-3-isopropyl-1H-pyrazol-4-yl]-7-fluoroquinoline-2,4-dicarboxamide] | 120 |
| Cc1nn(Cc2ccc(C#N)cc2)cc1NC(=O)c1cc(C(F)(F)F)nc2ccc(Br)cc12 [Example 8, 6-bromo-N-[1-(4-cyanobenzyl)-3-methyl-1H-pyrazol-4-yl]-2-(trifluoromethyl)quinoline-4-carboxamide] | 21 |
| O=C(O)c1nn(Cc2ccc(F)cc2)cc1NC(=O)c1cc(C(F)(F)F)nc2ccc(Br)cc12 [Example 18, 4-({[6-bromo-2-(trifluoromethyl)quinolin-4-yl]carbonyl}amino)-1-(4-fluorobenzyl)-1H-pyrazole-3-carboxylic acid] | 6.5 |
| Cc1ccc2nc(C)cc(C(=O)Nc3cn(Cc4ccc(F)cc4)nc3C(F)(F)F)c2c1 [Example 33, N-[1-(4-fluorobenzyl)-3-(trifluoromethyl)-1H-pyrazol-4-yl]-2,6-dimethylquinoline-4-carboxamide] | 183 |
| CS(=O)(=O)c1ccc(Cn2cc(NC(=O)c3cc(C(N)=O)nc4cc(F)c(Cl)cc34)c(C(F)(F)F)n2)cc1 [Example 44, 6-chloro-7-fluoro-N^4-{1-[4-(methylsulfonyl)benzyl]-3-(trifluoromethyl)-1H-pyrazol-4-yl}quinoline-2,4-dicarboxamide] | 11 |
| Cc1nn(Cc2ccccc2C#N)cc1NC(=O)c1cc(C(N)=O)nc2ccccc12 [Example 16, N^4-[1-(2-cyanobenzyl)-3-methyl-1H-pyrazol-4-yl]quinoline-2,4-dicarboxamide] | 137 |
| COc1ccc(Cn2cc(NC(=O)c3cc(OC)nc4ccccc34)c(C(F)(F)F)n2)cc1 [Example 48, 2-methoxy-N-[1-(4-methoxybenzyl)-3-(trifluoromethyl)-1H-pyrazol-4-yl]quinoline-4-carboxamide] | 193 |
| N#Cc1ccc(Cn2cc(NC(=O)c3cc(C(N)=O)nc4ccccc34)c(C(F)(F)F)n2)cc1 [Example 39, N^4-[1-(4-cyanobenzyl)-3-(trifluoromethyl)-1H-pyrazol-4-yl]quinoline-2,4-dicarboxamide] | 20 |
| CS(=O)(=O)c1ccc(Cn2cc(NC(=O)c3cc(C(N)=O)nc4cc(F)ccc34)c(C(F)(F)F)n2)cc1 [Example 45, 7-fluoro-N^4-{1-[4-(methylsulfonyl)benzyl]-3-(trifluoromethyl)-1H-pyrazol-4-yl}quinoline-2,4-dicarboxamide] | 126 |
| O=C(Nc1cn(Cc2ccc(F)cc2)nc1C(F)(F)F)c1cc(C(F)(F)F)nc2ccc(Br)cc12 [Example 31, 6-bromo-N-[1-(4-fluorobenzyl)-3-(trifluoromethyl)-1H-pyrazol-4-yl]-2-(trifluoromethyl)quinoline-4-carboxamide] | 1180 |
| N#Cc1ccc(Cn2cc(NC(=O)c3cc(C(N)=O)nc4cc(F)c(Cl)cc34)c(C(F)(F)F)n2)cc1 [Example 35, 6-chloro-N^4-[1-(4-cyanobenzyl)-3-(trifluoromethyl)-1H-pyrazol-4-yl]-7-fluoroquinoline-2,4-dicarboxamide] | 4.4 |
| Cc1nn(CC2CCCCC2)cc1NC(=O)c1cc(C(N)=O)nc2ccccc12 [Example 57, N^4-[1-(cyclohexylmethyl)-3-methyl-1H-pyrazol-4-yl]quinoline-2,4-dicarboxamide] | 556 |
| Cc1nn(Cc2ccc(F)cc2)cc1NC(=O)c1cc(C(F)(F)F)nc2ccc(Br)cc12 [Example 4, 6-bromo-N-[1-(4-fluorobenzyl)-3-methyl-1H-pyrazol-4-yl]-2-(trifluoromethyl)quinoline-4-carboxamide] | 111 |
| Cc1nn(Cc2ccn(C)n2)cc1NC(=O)c1cc(C(F)(F)F)nc2ccc(Br)cc12 [Example 73, 6-bromo-N-{3-methyl-1-[(1-methyl-1H-pyrazol-3-yl)methyl]-1H-pyrazol-4-yl}-2-(trifluoromethyl)quinoline-4-carboxamide] | 172 |
| O=C(Nc1cn(Cc2ccc(F)cc2)nc1C(F)(F)F)c1cc(C(F)(F)F)nc2c(Cl)cc(Cl)cc12 [Example 32, 6,8-dichloro-N-[1-(4-fluorobenzyl)-3-(trifluoromethyl)-1H-pyrazol-4-yl]-2-(trifluoromethyl)quinoline-4-carboxamide] | 763 |
| COc1ccc(Cn2cc(NC(=O)c3cc(C(N)=O)nc4cc(F)c(Cl)cc34)c(C(F)(F)F)n2)cc1 [Example 46, 6-chloro-7-fluoro-N^4-[1-(4-methoxybenzyl)-3-(trifluoromethyl)-1H-pyrazol-4-yl]quinoline-2,4-dicarboxamide] | 4.7 |
| Cc1nc(Cn2cc(NC(=O)c3cc(C(F)(F)F)nc4ccc(Br)cc34)c(C)n2)cs1 [Example 70, 6-bromo-N-{3-methyl-1-[(2-methyl-1,3-thiazol-4-yl)methyl]-1H-pyrazol-4-yl}-2-(trifluoromethyl)quinoline-4-carboxamide] | 275 |
| N#Cc1ccc(Cn2cc(NC(=O)c3cc(C(F)(F)F)nc4ccc(Br)cc34)c(C(=O)NCCO)n2)cc1 [Example 26, 6-bromo-N-{1-(4-cyanobenzyl)-3-[(2-hydroxyethyl)carbamoyl]-1H-pyrazol-4-yl}-2-(trifluoromethyl)quinoline-4-carboxamide] | 7040 |
| O=C(Nc1cn(Cc2ccc(F)cc2)nc1C(F)(F)F)c1cc(C(F)(F)F)nc2cc(F)c(F)cc12 [Example 34, 6,7-difluoro-N-[1-(4-fluorobenzyl)-3-(trifluoromethyl)-1H-pyrazol-4-yl]-2-(trifluoromethyl)quinoline-4-carboxamide] | 2040 |
| COc1cc(C(=O)Nc2cn(Cc3ccccc3C#N)nc2C)c2ccccc2n1 [Example 15, N-[1-(2-cyanobenzyl)-3-methyl-1H-pyrazol-4-yl]-2-methoxyquinoline-4-carboxamide] | 116 |
| Cc1nn(Cc2ccc(F)cc2)cc1NC(=O)c1cc(C(F)(F)F)nc2c(Cl)cc(Cl)cc12 [Example 7, 6,8-dichloro-N-[1-(4-fluorobenzyl)-3-methyl-1H-pyrazol-4-yl]-2-(trifluoromethyl)quinoline-4-carboxamide] | 176 |
| Cc1nn(Cc2cccc(F)c2)cc1NC(=O)c1cc(C(N)=O)nc2ccccc12 [Example 56, N^4-[1-(3-fluorobenzyl)-3-methyl-1H-pyrazol-4-yl]quinoline-2,4-dicarboxamide] | 193 |

Source: patent US20170226081A1, “GLUCOSE TRANSPORT INHIBITORS” (Bayer Pharma Aktiengesellschaft, priority 2014, published 2017)
